Patent US8063065B2, “Azaindazole compounds as CCR1 receptor antagonists” (Boehringer Ingelheim International GmbH, priority 2008, dated 2011)

biological target: T1, CCR1 (Homo sapiens, UniProt P32246); assay: Method A: calcium flux in CCR1 transfected cells (Fluo-4 NW, FLIPR TETRA), block of the CCR1/MIP-1α interaction; type: cell-based; conditions: Method A: Fluo-4 NW, MIP-1 alpha at EC80
T1 sequence (P32246 1-355): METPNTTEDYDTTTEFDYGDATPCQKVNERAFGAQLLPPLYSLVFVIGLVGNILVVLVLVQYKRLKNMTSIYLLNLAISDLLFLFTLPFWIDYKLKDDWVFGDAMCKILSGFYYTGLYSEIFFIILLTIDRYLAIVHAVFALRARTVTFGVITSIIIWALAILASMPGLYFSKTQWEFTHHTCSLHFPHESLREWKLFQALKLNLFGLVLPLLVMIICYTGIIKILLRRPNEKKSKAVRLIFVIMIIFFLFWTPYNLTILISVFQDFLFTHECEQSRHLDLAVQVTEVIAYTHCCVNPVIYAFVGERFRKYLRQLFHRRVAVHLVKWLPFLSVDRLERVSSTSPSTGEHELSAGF
Protocol: Compounds are assessed for the ability to block the interaction of CCR1 and MIP-1α in a functional cellular assay measuring calcium flux in CCR1 transfected cells.
Method A: Non-adherent cells purchased from Chemicon Corporation (HTS005C), stably expressing recombinant CCR1 and G-alpha-16 are grown in RPMI 1640 medium (Mediatech 10-080-CM) supplemented with 10% heat-inactivated FBS, 0.4 mg/mL Geneticin and penicillin/streptomycin. On the day of the assay, the cells are transferred to a beaker and dye-loaded in bulk using a Fluo-4 NW Calcium Assay Kit with probenecid (Invitrogen F36205) at 0.8E6 cells/mL for 1 hour at room temperature. After 1 hour, they are seeded in a 384-well tissue culture-treated plate at a density of 20,000 cells/well. Appropriately diluted test compound is added to the well to achieve a top concentration of 3,000 nM (diluted 4-fold with 10 doses total). The final concentration of DMSO is 1%. The buffer is HBSS (Invitrogen 14025) with 20 mM HEPES at pH 7.4. The cells are allowed to incubate 1 hour in the dark at room temperature. The plates are transferred to the FLIPR TETRA where MIP-1 alpha in 1% BSA is added at the EC80 final concentration. Wells+/−MIP-1 alpha containing diluted DMSO instead of compound serve as the controls. Intracellular calcium flux is recorded on the FLIPR TETRA, using excitation at 470/495 nm and emission at 515/575 nm. Data are analyzed using Activity Base software.

Row | Structure (SMILES) | IC50 [nM]
1 | C[C@H](NC(=O)c1cncc2c1cnn2-c1ccc(Cl)cc1)c1cncc(Br)c1 [1-(4-Chlorophenyl)-1H-pyrazolo[3,4-c]pyridine-4-carboxylic acid [(S)-1-(5-bromopyridin-3-yl)-ethyl]-amide] | 2
2 | CC(NC(=O)c1cncc2c1cnn2-c1ccc(F)cc1)c1ccc(Br)nc1 (centres unmarked) [1-(4-Fluorophenyl)-1H-pyrazolo[3,4-c]pyridine-4-carboxylic acid [1-(6-bromopyridin-3-yl)-ethyl]-amide] | 30
3 | COC1CCN(S(=O)(=O)c2ccc(CNC(=O)c3cncc4c3cnn4-c3ccc(F)cc3)cc2)CC1 [1-(4-Fluorophenyl)-1H-pyrazolo[3,4-c]pyridine-4-carboxylic acid 4-(4-methoxy-piperidine-1-sulfonyl)-benzylamide] | 0.7
4 | CN1CCC(N(C)S(=O)(=O)c2ccc(CNC(=O)c3cncc4c3cnn4-c3ccc(F)cc3)cc2)CC1 [1-(4-Fluorophenyl)-1H-pyrazolo[3,4-c]pyridine-4-carboxylic acid 4-[methyl-(1-methyl-piperidin-4-yl)-sulfamoyl]-benzylamide] | 5
5 | CCC[C@H](NC(=O)c1cncc2c1cnn2-c1ccc(F)cc1)c1cncc(S(=O)(=O)CCC(=O)OC)c1 [3-[5-((S)-1-{[1-(4-Fluorophenyl)-1H-pyrazolo[3,4-c]pyridine-4-carbonyl]-amino}-butyl)-pyridine-3-sulfonyl]-propionic acid methyl ester] | 2
6 | CCCC(NC(=O)c1cncc2c1cnn2-c1ccc(Cl)cc1)c1ccc(S(C)(=O)=O)nc1 (centres unmarked) [1-(4-Chlorophenyl)-1H-pyrazolo[3,4-c]pyridine-4-carboxylic acid [1-(6-methanesulfonyl-pyridin-3-yl)-butyl]-amide] | 1
7 | CN(C)S(=O)(=O)c1ccc(CNC(=O)c2cncc3c2cnn3-c2ccc(F)cc2)cn1 [1-(4-Fluorophenyl)-1H-pyrazolo[3,4-c]pyridine-4-carboxylic acid (6-dimethylsulfamoyl-pyridin-3-ylmethyl)-amide] | 1
8 | C[C@H](NC(=O)c1cncc2c1cnn2-c1ccc(F)cc1)c1cccc(S(C)(=O)=O)n1 [1-(4-Fluorophenyl)-1H-pyrazolo[3,4-c]pyridine-4-carboxylic acid [(S)-1-(6-methanesulfonyl-pyridin-2-yl)-ethyl]-amide] | 6
9 | CCCC(NC(=O)c1cncc2c1cnn2-c1ccc(F)cc1)c1cncc(S(C)(=O)=O)c1 (centres unmarked) [1-(4-Fluorophenyl)-1H-pyrazolo[3,4-c]pyridine-4-carboxylic acid [1-(5-methanesulfonyl-pyridin-3-yl)-butyl]-amide] | 0.6
10 | O=C(NCc1cccc(C(F)(F)F)c1)c1c[n+]([O-])cc2c1cnn2-c1ccc(F)cc1 [1-(4-Fluorophenyl)-6-oxy-1H-pyrazolo[3,4-c]pyridine-4-carboxylic acid 3-trifluoromethyl-benzylamide] | 6
11 | NC(=O)CNS(=O)(=O)c1ccc(CNC(=O)c2cncc3c2cnn3-c2ccc(F)cc2)cc1 [1-(4-Fluorophenyl)-1H-pyrazolo[3,4-c]pyridine-4-carboxylic acid 4-(carbamoylmethyl-sulfamoyl)-benzylamide] | 22
12 | CCCC(NC(=O)c1cncc2c1cnn2-c1ccc(F)cc1)c1cncc(S(=O)(=O)NC)c1 (centres unmarked) [1-(4-Fluorophenyl)-1H-pyrazolo[3,4-c]pyridine-4-carboxylic acid [1-(5-methylsulfamoyl-pyridin-3-yl)-butyl]-amide] | 0.5
13 | O=C(NCc1ccc(S(=O)(=O)NCCO)cc1)c1cncc2c1cnn2-c1ccc(F)cc1 [1-(4-Fluorophenyl)-1H-pyrazolo[3,4-c]pyridine-4-carboxylic acid 4-(2-hydroxy-ethylsulfamoyl)-benzylamide] | 1

The remaining lines, values ahead:

Row | IC50 [nM] | Structure (SMILES)
14 | 3 | CCCC(NC(=O)c1cncc2c1cnn2-c1ccc(F)cc1)c1cncc(S(=O)(=O)CCC(=O)OC)c1 (centres unmarked) [3-[5-(1-{[1-(4-Fluorophenyl)-1H-pyrazolo[3,4-c]pyridine-4-carbonyl]-amino}-butyl)-pyridine-3-sulfonyl]-propionic acid methyl ester]
15 | 0.4 | CCCC(NC(=O)c1cncc2c1cnn2-c1ccc(F)cc1)c1cncc(Br)c1 (centres unmarked) [1-(4-Fluorophenyl)-1H-pyrazolo[3,4-c]pyridine-4-carboxylic acid [1-(5-bromopyridin-3-yl)-butyl]-amide]
16 | 0.9 | CC(C)(CO)NS(=O)(=O)c1ccc(CNC(=O)c2cncc3c2cnn3-c2ccc(F)cc2)cc1 [1-(4-Fluorophenyl)-1H-pyrazolo[3,4-c]pyridine-4-carboxylic acid 4-(2-hydroxy-1,1-dimethyl-ethylsulfamoyl)-benzylamide]
17 | 0.9 | O=C(NCc1ccc(S(=O)(=O)N2CCC(O)C2)cc1)c1cncc2c1cnn2-c1ccc(F)cc1 (centres unmarked) [1-(4-Fluorophenyl)-1H-pyrazolo[3,4-c]pyridine-4-carboxylic acid 4-(3-hydroxy-pyrrolidine-1-sulfonyl)-benzylamide]
18 | 24 | CS(=O)(=O)c1ccc(CNC(=O)c2cncc3c2cnn3-c2ccc(F)cc2)cc1O [1-(4-Fluorophenyl)-1H-pyrazolo[3,4-c]pyridine-4-carboxylic acid 3-hydroxy-4-methanesulfonyl-benzylamide]
19 | 0.2 | CNS(=O)(=O)c1ccc(CNC(=O)c2cncc3c2cnn3-c2ccc(F)cc2)c(Cl)c1 [1-(4-Fluorophenyl)-1H-pyrazolo[3,4-c]pyridine-4-carboxylic acid 2-chloro-4-methylsulfamoyl-benzylamide]
20 | 39 | CS(=O)(=O)c1cccc(CNC(=O)c2cncc3c2cnn3-c2ccc(F)cc2)n1 [1-(4-Fluorophenyl)-1H-pyrazolo[3,4-c]pyridine-4-carboxylic acid (6-methanesulfonyl-pyridin-2-ylmethyl)-amide]
21 | 18 | O=C(NCc1ccc(S(=O)(=O)N2CCOCC2)nc1)c1cncc2c1cnn2-c1ccc(F)cc1 [1-(4-Fluorophenyl)-1H-pyrazolo[3,4-c]pyridine-4-carboxylic acid [6-(morpholine-4-sulfonyl)-pyridin-3-ylmethyl]-amide]
22 | 2 | O=C(NCc1ccc(S(=O)(=O)N2CCC(O)C2)cc1)c1cncc2c1cnn2-c1ccc(Cl)cc1 (centres unmarked) [1-(4-Chlorophenyl)-1H-pyrazolo[3,4-c]pyridine-4-carboxylic acid 4-(3-hydroxy-pyrrolidine-1-sulfonyl)-benzylamide]
23 | 0.2 | CC[C@H](NC(=O)c1cncc2c1cnn2-c1ccc(F)cc1)c1cncc(Br)c1 [1-(4-Fluorophenyl)-1H-pyrazolo[3,4-c]pyridine-4-carboxylic acid [(S)-1-(5-bromopyridin-3-yl)-propyl]-amide]
24 | 2 | CN(C1CCOCC1)S(=O)(=O)c1ccc(CNC(=O)c2cncc3c2cnn3-c2ccc(F)cc2)cc1 [1-(4-Fluorophenyl)-1H-pyrazolo[3,4-c]pyridine-4-carboxylic acid 4-[methyl-(tetrahydropyran-4-yl)-sulfamoyl]-benzylamide]
25 | 7 | CS(=O)(=O)Nc1ccc(CNC(=O)c2cncc3c2cnn3-c2ccc(F)cc2)cc1 [1-(4-Fluorophenyl)-1H-pyrazolo[3,4-c]pyridine-4-carboxylic acid 4-methanesulfonylamino-benzylamide]
26 | 9 | CC(NC(=O)c1cncc2c1cnn2-c1ccc(F)cc1)c1ccc(S(C)(=O)=O)nc1 (centres unmarked) [1-(4-Fluorophenyl)-1H-pyrazolo[3,4-c]pyridine-4-carboxylic acid [1-(6-methanesulfonyl-pyridin-3-yl)-ethyl]-amide]
